Measured values from patent US7598269B2, “Methods and compositions for treating amyloid-related diseases” (Bellus Health (International) Limited, priority 2003, dated 2009).

How the values were obtained:
[1] = target: T1, NAC peptide (Homo sapiens, UniProt P37840); experiment: Binding to NAC peptide by electrospray mass spectrometry; settings: area of bound NAC-compound complex peaks / unbound NAC; compound:NAC 5:1, 6.6% EtOH, pH 7.4
T1 construct: NAC is a 35 amino acid long peptide with highly hydrophobic stretches
Method: The ability of the compounds of the present invention to bind to NAC peptide in aqueous solution was evaluated. The binding ability correlates to the intensities of the peptide-compound complex peaks observed by the Electrospray Mass Spectrum. Millipore distilled deionized water was used to prepare all aqueous solutions. For pH determination a Beckman Φ36 pH meter fitted with a Corning Semi-Micro Combination pH Electrode was employed.
The optimal cone voltage was determined to be 20V.
Mass spectrometry—Mass spectrometric analysis was performed using a Waters ZQ 4000 mass spectrometer equipped with a Waters 2795 sample manager. MassLynx 4.0 (earlier by MassLynx 3.5) was used for data processing and analysis. Test compounds were mixed with disaggregated peptides in aqueous media (6.6% EtOH) at a 5:1 ratio (20 μM NAC: 100 μM of test compound or 40 μM NAC:200 μM of test compound). The pH of the mixture was adjusted to 7.4 (±0.2) using 0.1% NaOH (3-5 μL). Periodically, NAC peptide solution at 20 μM or 40 μM was also prepared in the same fashion and run as control. The spectra were obtained by introducing the solutions to the electrospray source by direct infusion using a syringe pump at a flow rate of 25 μl/min, and scanning from 100 to 2100 Da in the positive mode. The scan time was 0.9 sec per scan with an inter-scan delay of 0.1 sec and the run time was 5 min for each sample. All the mass spectra were sum of 300 scans. The desolvation and source temperature was 70° C. and the cone and capillary voltage were maintained at 20 V and 3.2 kV respectively.
The total area under the peaks for the bound NAC-compound complex divided by total area under the peaks for unbound NAC was determined for each compound tested.

[2] = test system: Aβ peptides; experiment: Short term treatment of TgCRND8 mice: Aβ peptide levels; assay type: in vivo, Mouse; settings: after 14 and 28 days of treatment
Method: The short term therapeutic effect of 19 compounds of the invention was studied. These compounds were administered over a 14 or 28 day period at the end of which the levels of Aβ peptides in the plasma and brain of TgCRND8 animals were determined.
Starting at 11 weeks of age (±1 week) animals received daily administration of their respective treatment for a period of 14 or 28 days (groups 2-21), at a dose of 250 mg/kg at 10 ml/kg or of vehicle only (water; group 2) or 1% methyl cellulose only (group 21). The route of administration was subcutaneous for water-soluble compounds and oral for compounds solubilized in methylcellulose 1% (MC 1%). At the end of the treatment periods, plasma and perfused brains were collected for quantification of Aβ levels.
Aβ levels were evaluated in plasma and brain samples by ELISA using Human Aβ40 and Aβ42 Fluorometric ELISA kits from Biosource (Cat. No. 89-344 and 89-348) according to manufacturer's recommended procedures. […] The plate was incubated for 35 minutes at room temperature and the plate was read using a titer plate reader at an excitation wavelength of 460 nm and emission at 560 nm.
Compounds were scored based on their ability to modulate levels of Aβ peptides in the plasma and the cerebral soluble/insoluble levels in the brain. […] The strongest effects are recorded as “+++” or “−−−” while the weakest are shown as “+” or “−”.

[3] = target: T2, Aβ42 (Homo sapiens, UniProt P05067); experiment: Short term treatment of TgCRND8 mice: Aβ42 levels in plasma and brain (ELISA); assay type: in vivo, Mouse; settings: brain homogenate, vehicle group
T2 construct: from tissue; host or cells: plasma and brain homogenate of TgCRND8 transgenic mice (hAPP transgene)
T2 sequence (P05067 672-713 limits assumed): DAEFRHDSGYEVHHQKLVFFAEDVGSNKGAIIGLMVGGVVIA
Source text: (§1) Transgenic mice, […]8, expressing the human amyloid precursor protein (hAPP) develop a pathology resembling Alzheimer's disease. In particular, high levels of Aβ40 and Aβ42 have been documented in the plasma and the brain of these animals at 8-9 weeks of age, followed by early accumulation of amyloid plaques similar to the senile plaques observed in […]. These animals also display progressive cognitive deficits that parallel the appearance of degenerative changes. See, […], et al., J. Biol. Chem. 276, 21562-70 (2001). The short term therapeutic effect of 19 compounds of the invention was studied. […] The following abbreviations are used to designate these animals from the 3rd and 4th generation backcross in the present protocol: TgCRND8-2.B6C3F1 (N3); TgCRND8-2.B6C3F1 (N4). Baseline animals (Group 1) consisted of naive TgCRND8-2.B6C3F1(N3) at 11±1 weeks of age. These mice were used to determine the Aβ levels in the plasma and brain of naive transgenic animals at the initiation of treatment. […] At the end of the treatment periods, plasma and perfused brains were collected for quantification of Aβ levels. […] Plasma samples were immediately frozen and stored at -80° C. pending analysis. The brains were removed, frozen, and stored at -80° C. awaiting analysis. […] Samples were spun at 15000 g for 20 minutes and the supernatants were transferred to fresh tubes. […] The tubes were vortexed for 30 seconds and frozen at -80° C. […] Samples were thawed at room temperature, sonicated at 80° C. for 15 minutes and frozen again. This cycle was repeated 3 times to ensure homogeneity and samples were returned to -80° C. pending analysis. Aβ levels were evaluated in plasma and brain samples by ELISA using Human Aβ40 and Aβ42 Fluorometric ELISA kits from Biosource (Cat. […] In short, samples were thawed at room temperature, sonicated for 5 minutes at 80° C. (sonication for brain homogenates; no sonication for plasma samples) and kept on ice. Aβ peptides were captured using 100 μl of the diluted samples to the plate and incubated without shaking at 4° C. overnight. The samples were aspirated and the wells were rinsed 4 times with wash buffer obtained from the Biosource ELISA kit. The anti-Aβ40 or anti-Aβ42 rabbit polyclonal antiserum (specific for the Aβ40 or Aβ42 peptide) was added (100 μl) and the plate was incubated at room temperature for 2 hours with shaking. The wells were aspirated and washed 4 times before adding 100 μl of the alkaline phosphatase labeled anti-rabbit antibody and incubating at room temperature for 2 hours with shaking. The plates were then rinsed 5 times and the fluorescent substrate (100 μl) was added to the plate. The plate was incubated for 35 minutes at room temperature and the plate was read using a titer plate reader at an excitation wavelength of 460 nm and emission at 560 nm. Compounds were scored based on their ability to modulate levels of Aβ peptides in the plasma and the cerebral soluble/insoluble levels in the brain. Levels of Aβ observed in the plasma and brain of treated animals were normalized using values from vehicle-treated (water) or methylcellulose-treated control groups and ranked according to the strength of the pharmacological effect. Increases in the levels of Aβ peptides are indicated using “+” symbols, while decreases in the levels of Aβ peptides are indicated using “-” symbols. The strongest effects are recorded as “+++” or “---” while the weakest are shown as “+” or “-”.

[4] = target: T3, Aβ40 (Homo sapiens, UniProt P05067); experiment: Short term treatment of TgCRND8 mice: Aβ40 levels in plasma and brain (ELISA); assay type: in vivo, Mouse; settings: brain homogenate, vehicle group
T3 construct: from tissue; host or cells: plasma and brain homogenate of TgCRND8 transgenic mice (hAPP transgene)
T3 sequence (P05067 672-711 limits assumed): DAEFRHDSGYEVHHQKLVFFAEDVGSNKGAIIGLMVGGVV
Source text: as §1

[5] = Day 14, 250 mg/kg daily subcutaneous
[6] = Day 28, 250 mg/kg daily subcutaneous

CH3(CH2)9N^+(CH3)2(CH2)3SO3^− [DB]
Binding Strength [1]: +++ (Strong; when the total binding is 120% and higher)

CCCCCCCCCCCC[N+](C)(C)CCCS(=O)(=O)[O-] [DF, CH3(CH2)11N^+(CH3)2(CH2)3SO3^−]
Binding Strength [1]: ++ (Moderate; when the total binding is between 120% and 70%)

O=C1NCCCC[C@@H]1NCCCS(=O)(=O)[O-].[Na+]
Binding Strength [1]: + (Weak; when the total binding is between 70% and 30%)

CC(C)(C)NCCCS(=O)(=O)O [Compound BX, 3-(t-butyl)amino-1-propanesulfonic acid]
levels of Aβ peptides in the plasma [2]: significant increase

CCCCCCCCCCCCCC[N+](C)(C)CCCS(=O)(=O)[O-] [NA, CH3(CH2)13N^+(CH3)2(CH2)3SO3^−]
Binding Strength [1]: ++ (Moderate; when the total binding is between 120% and 70%)

NCCCCS(=O)(=O)[O-].[Na+]
Binding Strength [1]: − (None; when the total binding is between 30% and 0%)

CCCCCNCCCS(=O)(=O)O [CF, 3-pentylamino-1-propanesulfonic acid]
Aβ42 Change Insoluble [3, 5]: −− (decreases of 20 to 38% are scored as “−−”) | Aβ42 Change Soluble [3, 5]: − (Decreases in the levels of Aβ of 5 to 19% are scored as “−”) | Aβ42 Change Insoluble [3, 6]: + (increases in the levels of Aβ (relative to untreated control) of 20 to 39% are scored as “+”) | Aβ40 Change Insoluble [4, 5]: − (Decreases in the levels of Aβ of 5 to 19% are scored as “−”) | Aβ40 Change Soluble [4, 5]: ++ (increases of 40 to 69% are scored as “++”) | Aβ40 Change Soluble [4, 6]: + (increases in the levels of Aβ (relative to untreated control) of 20 to 39% are scored as “+”)
